Measurements reported in publication PMC11945201, “Enhancing the Oral Bioavailability of Glutathione Using Innovative Analogue Approaches” (Pharmaceutics, 2025).

What was measured:
[1] = tested on: glutathione S-transferase (GST); experiment: Glutathione S-transferase assay (CDNB conjugation, absorbance 340 nm); type: biochemical, equine; settings: for activity/efficacy with GST enzyme (in words): qualitative analysis; for GST Activity > 50%: yes/no, compared to GSH, more than 50% considered retaining GST activity
Description: The degree of conjugation of GSH or novel compounds to a substrate catalysed by GST can be monitored […] by conjugation with the substrate 1-chloro-2,4-dinotrobenzene (CDNB) to a thiol group. Successful conjugation results in the formation of a S-DNB conjugate, which strongly absorbs at 340 nm.
A stock solution of GSH and novel compounds (0.0315 mmolL^−1) were prepared. GSH or novel compounds (26 µL) were added to a mixture of pH = 7.4 DPBS (170 µL), CDNB (2 µL, 100 mmolL^−1), and GST enzyme (2 µL, 25 UmL^−1) to initiate the reaction. The rate of increase in absorbance at 340 nm was monitored every minute over a 10 min period. The rate of increase in absorbance at 340 nm was calculated by the following equation (Equation (1)), where ΔA340 is the change in absorption at 340 nm per minute:(1) ΔA340=A340(final)–A340(initial)/t.
The rate of increase in absorption at 340 nm was correlated to the specific activity of GST using the following equation (Equation (2)):(2) ΔA340×V/εmM ×Venz=Specific activity of GST, where the extinction coefficient εmM for a 96-well plate of a path length of 0.5 cm is 5.3 mmolL^−1cm^−1; Venz is the volume of the GST enzyme sample used (2 µL); and V is the total volume used ([…]). […] A GST activity more than 50% was considered as retaining GST activity.

[2] = tested on: γ-glutamyl transferase (GGT); type: in vitro ADME, equine; settings: for % Degradation by GGT: horse, 100 μgmL^−1, pH 9
Description: Each compound and GSH (100 μgmL^−1, 0.0315 molL^−1) was added to each reaction vessel containing phosphate buffer solution (800 μL, pH 9.0). The reaction vessels were incubated at 37 °C with shaking for the entire duration of the experiment. Reaction was initiated by the addition of GGT enzyme solution (100 μL, 10 UmL^−1). […] The degradation rate of the novel compounds analysed by HPLC were compared with that of GSH. […] A GGT degradation less than 50% was considered resistance to GTT activity.

[3] = tested on: Fibroblast cells; experiment: UV rescue of UVA-irradiated fibroblast cells (MTT); type: cell-based; settings: for cell viability versus untreated groups (in words): UV rescue; for % Cell Viability (with UV): UVA 1 h, then peptide 0.0325 mmolL^−1, 24 h
Description: (§1) Fibroblast cells were seeded into 96-well plates at a density of 10,000 cells per well determined by cell counting. Cells were allowed to settle and attach for 24 h before the addition of peptides. The supernatant in each well was discarded, and the attached cells were washed using serum-free DMEM twice. One group of cells was exposed to UVA under a UV lamp for 1 h. A second group of cells was not exposed to UV irradiation. The supernatant was removed from each well of both groups and replaced with peptide (100 μL, 0.0325 mmolL^−1), which was then dissolved in Fluorobite^TM DMEM. Each plate, including 2 wells of both groups was also incubated with serum-free DMEM (positive control) and 2% Triton-X (negative control) for 24 h. The supernatant in each well of both groups was then discarded and the cells washed using PBS. MTT (100 μL, 6 mmolL^−1) that was dissolved in HBSS was then added to each well and incubated for 2 h for MTT conversion into formazan. The supernatant was then discarded, and the cells were washed using PBS to remove any residual MTT and formazan that were not attached to the cellular mitochondria. Formazan was dissolved in DMSO (50 μL), and the absorbance was measured on a microplate reader at a wavelength of 570 nm.

[4] = UV rescue of UVA-irradiated fibroblast cells (MTT); type: cell-based; settings: peptide 0.0325 mmolL^−1, 24 h, no UV, mean ± SD, n = 6, read-out: % Cell Viability (no UV)
Description: as §1

[5] = tested on: Caco-2, Fibroblast, and HT29-MTX-E12 cells; experiment: Cytotoxicity by MTT cell viability; type: cell-based; settings: 24 h incubation, cell line not split in table (Caco-2, Fibroblast, HT29-MTX-E12), highest usable concentration 3.25 mmolL^−1
Description: All cell culture studies were conducted in aseptic conditions. Incubation was maintained at an atmosphere of 37.0 °C, 5% CO2, and 95% relative humidity. The caco-2 cells were grown in complete Dulbecco’s modified Eagle’s medium (DMEM), which was prepared by adding 10% foetal bovine serum (FBS), 1% penicillin-streptomycin (P-S), and 1% non-essential amino acids (NEAA) to sterile DMEM. Cells were cultured in T-25 and T-75 tissue culture flasks, and the medium was exchanged every 3 days until 90% confluence was reached. Cells were detached and subcultured with 0.25% Trypsin-EDTA. The suspended cell concentration was determined by cell counting.
Cytotoxicity was measured by measuring cell viability using MTT. Then, 90% confluent cells were detached by 0.25% trypsin-EDTA, which were then counted and seeded into sterile 96-well plates. Caco-2 cells were seeded into 96-well plates at a density of 100,000 cells per well and incubated for 24 h prior to the experiment. Fibroblast cells were seeded into 96-well plates at a density of 10,000 cells per well and incubated for 24 h prior to the experiment. HT-29 cells were seeded into 96-well plates at a density of 10,000 cells per well and incubated for 24 h prior to the experiment. The supernatant in each well were discarded and the attached cells were washed using serum-free Fluorobite^TM DMEM twice to remove any phenol red. The peptide, at concentrations of 10 mgmL^−1, 1 mgmL^−1, 0.1 mgmL^−1, 0.01 mgmL^−1, 0.001 mgmL^−1, and 0.0001 mgmL^−1 were dissolved in serum-free Fluorobite^TM DMEM. The total volume of sample in each well used was 100 μL. The cells were incubated with the peptide for 24 h. Cells were also incubated with serum-free DMEM (positive control) and 2% Triton-X (negative control) for 24 h. The supernatant in each well was then discarded and washed using serum-free Fluorobite^TM DMEM. MTT (100 μL, 1.2 mmolL^−1) dissolved in Fluorobite^TM DMEM was then added to each well and incubated for 2 h for MTT conversion into formazan. The supernatant was then discarded, and the cells were washed using Fluorobite^TM DMEM to remove any residual MTT and formazan that were not attached to cellular mitochondria. Formazan was dissolved in dimethyl sulfoxide (DMSO) (50 μL), and the absorbance was measured on a microplate reader at a wavelength of 570 nm. Cell viability was expressed as a percentage of the positive control and calculated as follows (where Aexp is the absorbance at 570 nm of the experimental group, Aneg is the absorbance at 570 nm of the negative control, and Acon is the cell viability of the positive control): Cell viability = (Aexp − Aneg)/(Acon − Aneg).

[6] = tested on: glutathione reductase (GR) and glutathione peroxidase (GPx); experiment: Glutathione reductase and glutathione peroxidase coupled assay (NADPH, 340 nm); type: biochemical, yeast (GR), bovine (GPx); settings: for activity with GPx and GR enzymes (in words): qualitative analysis; for GT/GPx Activity > 50%: yes/no, more than 50% considered retaining GR and GPx activity
Description: The activity of GR can be measured by monitoring the rate of decrease in absorbance of its substrate, NADPH, which absorbs light of 340 nm in the presence of a second substrate, i.e., oxidised GSH. […] In the presence of peroxides, reduced GSH can be oxidised by the enzyme GPx while reducing the peroxide. […] The NADPH solution (10 μL, 5 mmolL^−1), GPx enzyme solution (10 μL, 0.25 UmL^−1), and GR enzyme solution (10 μL, 10 UmL^−1) were also added to the reaction mixture. The reaction was initiated by the addition of tBu-OOH (2 μL, 30 mmolL^−1), and the decrease in absorbance at 340 nm was recorded by a microplate reader every 10 secs for one minute. […] A GR and GPx activity more than 50% was considered as retaining GR and GPx activity.

Compound | activity/efficacy with GST enzyme (in words) [1] | GST Activity > 50% [1] | GGT degradation compared to GSH (in words) [2] | % Degradation by GGT [2] | cell viability versus untreated groups (in words) [3] | % Cell Viability (with UV) ([3]; mean ± SD, n = 6) | viability at 24 h, 0.0325 mmolL^−1 [4] | IC50 ([5]; Homo sapiens) | activity with GPx and GR enzymes (in words) [6] | GT/GPx Activity > 50% [6] | % Cell Viability (no UV) ([3]; peptide 0.0325 mmolL^−1, 24 h, no UV, mean ± SD, n = 6) | IC50 [5]
N[C@@H](CCC(=O)N[C@H](CS)C(=O)NCC(=O)O)C(=O)O [Compound 1.62] | lost detoxification efficacy | X (X: no) | less than half the rate of GGT degradation | 82.3% | significantly higher cell viability than the untreated groups | 70.8 ± 5.7% | 112 ± 5.5% | > 3.25 mM | loss of activity | X (X: no) | – | –
CN[C@@H](CCC(=O)N[C@@H](CS)C(=O)NCC(=O)O)C(=O)O [Compound 1.71] | loss of activity | X (X: no) | – | 11.7% | significantly higher cell viability than the untreated groups | 97.0 ± 5.5% | 79.5 ± 10.2% | – | retention of activity | ✔ (✔: yes) | – | –
N[C@H](CCC(=O)N[C@H](CS)C(=O)NCC(=O)O)C(=O)O [Compound 1.64] | retained the detoxification effectiveness | ✔ (✔: yes) | less than half the rate of GGT degradation | 60.2% | significantly higher cell viability than the untreated groups | 98.5 ± 7.1% | 128 ± 7.9% | > 3.25 mM | loss of activity | X (X: no) | – | –
N[C@@H](CCC(=O)N[C@@H](CS)C(=O)NCC(=O)O)C(=O)O [Compound 1.61] | – | ✔ (✔: yes) | – | 100% | significantly higher cell viability than the untreated groups | 69.0 ± 0.6% | – | – | – | ✔ (✔: yes) | 74.3 ± 2.0% | > 3.25 mM
N[C@H](CCC(=O)N[C@@H](CS)C(=O)NCC(=O)O)C(=O)O [Compound 1.63] | lost detoxification efficacy | X (X: no) | less than half the rate of GGT degradation | 72.7% | significantly higher cell viability than the untreated groups | 101.1 ± 5.2% | 137 ± 16.1% | > 3.25 mM | retained activity | ✔ (✔: yes) | – | –
CN(CC(=O)O)C(=O)[C@H](CS)NC(=O)CC[C@H](N)C(=O)O [Compound 1.65] | loss of activity | X (X: no) | did not show a decrease in degradation | 122.2% | significantly higher cell viability than the untreated groups | 69.3 ± 26.6% | 58.8% | 0.984 mM | retention of activity | ✔ (✔: yes) | – | –
